# Tests used:
# TrkA = test: Biotinylated peptide pull down of TrkA; format: binding; conditions: lysate of transfected HEK293 cells, FIG. 4D
# Description: (§1) For peptide pull down assays, the biotinylated c29 or LC1 control peptides were incubated with protein A-sepharose beads or Dynabeads MyOne Streptavidin T1 (Invitrogen) overnight at 4° C. Cell lysates were then added to the peptide-protein A-sepharose complex or Dynabeads MyOne Streptavidin T1 and incubated for 3 hours at 4° C. Peptide-receptor complexes were washed extensively with RIPA lysis buffer and eluted by boiling in Laemmli sample buffer. For p75^NTR construct immunoprecipitations, HEK293 cells were treated with NGF at 50 ng/ml for 10 minutes 48 hours after transfection with 1 μg DNA per well. Cells were immediately harvested in ice-cold phosphate buffered saline (PBS) and washed twice, then lysed in 1 ml of lysis buffer. Cell lysates were pre-cleared in 75 μl (1:2) protein-G sepharose: PBS by rotation end-over-end for 2 hours at 4′C. Lysates were then incubated with 3-5 μg antibody, either mouse-anti-YFP/GFP (Roche) or rabbit-anti-human p75^NTR intracellular domain antibody (Promega), and rotated end-over-end for 2 hours at 4° C.
# (§2) Immunoprecipitation was performed by the addition of 75 μl (1:2) protein-G sepharose: PBS and incubation end-over-end for 16 hours at 4° C. The immunoprecipitate was washed 4 times with 1 ml of PBS then eluted in 60 μl 2×LDS sample buffer. For immunoblotting, samples were boiled for 5 minutes, separated by SDS-PAGE and transferred onto nitrocellulose membranes, then western blotted using standard protocols (see Example 1 for antibodies used).
# The c29 peptide was labelled with biotin and attached to a sepharose bead column. Lysates from cells was passed over the column followed by several wash steps. The proteins that bound to the c29 peptide (proteins that are pulled down) were eluted from the column with SDS buffer and separated in size by SDS-PAGE electrophoresis. The gel was Western blotted and the membrane probed with antibodies to proteins of interest.
# TrkB = target: T1, TrkB (Mus musculus, UniProt P15209); test: Biotinylated peptide pull down of TrkB from NSC-34 cells; format: binding; conditions: NSC-34 cell lysate, FIG. 4D
# T1 construct: endogenous in cells; host or cells: NSC-34
# Description: as §1
# (§3) Immunoprecipitation was performed by the addition of 75 μl (1:2) protein-G sepharose: PBS and incubation end-over-end for 16 hours at 4° C. The immunoprecipitate was washed 4 times with 1 ml of PBS then eluted in 60 μl 2×LDS sample buffer. […]
# HEK293 cells = test: NGF-FITC binding by flow cytometry, non-transfected HEK293 cells
# Description: Background fluorescence of HEK293 cells was non-transfected cells (±c29 or scrambled peptide treatment) treated with 26 nM NGF-FITC. For PC12 cells, the control population was cells that had not been treated with NGF-FITC. Analysis of real-time NGF-FITC receptor binding experiments was performed on 550,000-600,000 cells at 4° C. in serum free NB medium and binding kinetics were calculated from raw data files compressed to 50,000 binding events using FlowJo and MatLab Software. Data was plotted with the use of GraphPad Prism.
# Only NGF-FITC preparations that promoted equivalent neurite outgrowth of PC12 cells to that of unlabelled NGF were used in binding experiments. To investigate NGF binding, PC12 or transfected HEK293 cells were serum starved for 4 hours, harvested, washed with Dulbecco's Modified Eagle Medium (DMEM), and counted. When used, c29 or scrambled peptide were added to cultures for the third hour of the serum starvation procedure. […] For binding competition assays, following 1 hour in NGF-FITC, cells were washed with ice-cold PBS containing 0.1% normal bovine serum and incubated on ice with unlabeled NGF at concentrations ranging from 100 pM to 10 μM for 30 minutes, then washed twice in PBS before being analysed on a BD Flow Cytometer FACS Scan (Becton-Dickinson).
# pErk1/2 and pAkt = test: Western blot of pErk1/2 and pAkt in PC12 cell lysates; format: cell-based; conditions: 24 hours
# Description: In biochemical experiments, PC12 and HEK293 cells were lysed for 20 minutes on ice in lysis buffer as described by (Ceni et al., 2010). Briefly, the lysis buffer contained 10 mM Tris-HCl, 150 mM NaCl, 2 mM EDTA, 1% (v/v) NP-40, 1% (v/v) TX-100, 10% Glycerol, 1 mM PMSF, 1 mM Sodium Orthovanadate, 1 μM BB94, 1% (v/v) Roche protease inhibitor cocktail and pH 8.0 (Ceni et al., 2010).
# as §2
# The observed functional effects on neurite outgrowth and survival were next correlated with enhanced activation of signal transduction pathways that mediate the trophic effects of TrkA. Lysates of cells treated for 24 hours with NGF alone or in combination with c29 or scrambled peptide were immunoblotted for pErk1/2 (neurite outgrowth), and the serine/threonine protein kinase Akt (survival). […] Total levels of Erk1/2 or Akt were unaffected by any treatment (FIG. 6 A, B).
# EGF receptor = target: T2, EGF receptor (Homo sapiens, UniProt P00533); test: Biotinylated peptide pull down of EGF receptor; format: binding; conditions: lysate of transfected HEK293 cells, FIG. 4D
# T2 construct: GFP; expressed in transfected cells; host or cells: HEK293
# Description: as §1, §3
# [1] = tested on: C7-8 spinal cord motor neurons; test: Motor neuron axotomy (median and ulnar nerve) in neonatal rat; format: in vivo; conditions: P4 rat pups, peptide in gel foam at axonal stump, 5-day recovery, relative to contralateral side
# Description: Median and ulnar nerve axotomy was performed on 4 day-old Wistar rat pups as previously described (Cheema et al., 1996). Peptides (c29 and vehicle only; 100 nM) were applied via a 1 mm^3 cube of pluronic gel foam that was sutured to the proximal axonal stump (Cheema et al., 1996). After 5 days the animals were perfused with a 4% solution of paraformaldehyde in phosphate buffer. Cervical spinal cords were removed, after which serial sections were cut at 40 μm, mounted onto gelatin-coated slides and stained in 0.1% cresyl violet. Details of the counting procedure have been described previously (Cheema et al., 1994).
# We next investigated whether c29 could prevent motor neuron death following growth factor withdrawal in vivo using a neonatal rat axotomy model. Following unilateral median and ulnar nerve transections of postnatal day 4 (P4) rat pups, c29 or the vehicle protein transduction domain (PTD4) was applied to the proximal site of transaction in a small cube of gel foam. After a 5-day recovery, the number of surviving C7-8 spinal cord motor neurons relative to the contralateral side was determined by histological counts. Such an axotomy causes 50% of the ipsilateral motor neurons to die (Cheema et al., 1996), with control peptide treatment having no effect on this degree of cell death (FIG. 7E, F). […]
# [2] = 10 ng/ml NGF, relative to 10 ng/ml NGF and scrambled peptide
# T1 sequence (P15209 32-476 isoform P15209-2 limits assumed): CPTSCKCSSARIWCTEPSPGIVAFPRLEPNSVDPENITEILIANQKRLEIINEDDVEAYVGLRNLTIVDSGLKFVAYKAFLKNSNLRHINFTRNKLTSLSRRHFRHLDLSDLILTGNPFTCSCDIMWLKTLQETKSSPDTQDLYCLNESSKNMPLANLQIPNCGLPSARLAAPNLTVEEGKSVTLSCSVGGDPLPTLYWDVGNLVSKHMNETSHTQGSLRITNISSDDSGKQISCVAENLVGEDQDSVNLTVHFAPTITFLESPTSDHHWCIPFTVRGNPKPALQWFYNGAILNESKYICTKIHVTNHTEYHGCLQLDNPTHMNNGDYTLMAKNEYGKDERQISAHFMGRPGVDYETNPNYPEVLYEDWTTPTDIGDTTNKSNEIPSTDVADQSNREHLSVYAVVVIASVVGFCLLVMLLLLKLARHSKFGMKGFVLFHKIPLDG
sequence,measurement,setting,value
KRWNSCKQNKQGANSRPVNQTPPPEGEKL (c29- Fragment of p75ICD) [29 amino acid peptide of the p75NTR juxtamembrane Chopper domain; delivered to cells linked to PTD4 or disulfide-linked carrier],pull down of TrkA,TrkA,able to pull down TrkA
same,pull down of endogenously expressed TrkB,TrkB,able to pull down endogenously expressed TrkB
same,fluorescence of nontransfected cells incubated with peptide and NGF-FITC,HEK293 cells,only background levels of fluorescence
same,increase in pAkt,pErk1/2 and pAkt; [2],2 fold
same,increase in pErk1/2,pErk1/2 and pAkt; [2],2 fold
same,pAkt signalling,pErk1/2 and pAkt; absence of NGF,no effect
same,pErk1/2 signalling,pErk1/2 and pAkt; absence of NGF,no effect
same,pull down of EGF receptor,EGF receptor,did not pull down
same,axotomised neurons that died,[1],12%

# From US20150344535A1, “NEUROTROPHIN-TYROSINE KINASE RECEPTOR SIGNALING” (THE UNIVERSITY OF QUEENSLAND, priority 2012, published 2015)
